In patent US20070142449A1, “Angiogenesis inhibitors” (priority 2002, published 2007):
Read-outs that look alike come from different tables or passages of the source.

How the values were obtained:
[1] = system: bFGF-induced tube formation of HUVECs; assay: Inhibition of bFGF-induced tube formation of HUVECs on Matrigel; type: cell-based, Human; settings: 10 TM compound, bFGF 10 ng/mL, Matrigel 10 mg/mL
Method: (§1) HUVECs were cultured onto a chamber slide, which was pre-coated with Matrigel (10 mg/mL). Cells were treated without Compound 1 (control) or with Compound 1 (10 TM). VEGF (10 ng/mL) or bFGF (10 ng/mL) was added to induce tube formation. All photos were taken at 100× magnification.

HUVECs = assay: HUVEC growth inhibition assay (crystal violet); type: cell-based; settings: Homo sapiens; for activity at 30 µM: 72 hours; for inhibition at 30 µM: read-out: Inhibition of HUVECs growth compared with the control
Method: These compounds were tested in a growth inhibition assay using HUVECs as follows. 5×10^3 Human umbilical vein endothelial cells (HUVECs) were seeded in two 96-well plates (Clonetic # CC3162). Each well contains 100 μl of endothelial cell basal medium-2. After 24 hr, 100 μl endothelial cell growth medium-2 containing a test compound was added to each well of the two plates. The cells in the first plate were immediately stained with 0.5% crystal violet in 20% methanol for 10 minutes, rinsed with water, and air-dried. The cells in the second plate were incubated for 72 hours at 37° C. and then stained in the same manner. Each well in the first and second plates was eluted with 1:1 ethanol and 0.1 M sodium citrate, and absorbance of the resulting solution was measured at 540 nm with an ELISA reader.
Basal and control experiments were also conducted according to the above procedure, except that 100 μl endothelial basal medium-2 and 100 μl endothelial growth medium-2 were added to the second plates, respectively, instead of endothelial cell growth medium-2 containing a test compound.
HUVECs growth in each well was compared with that of the basal experiment according to the following equation: % basal=(Asecond plate−Afirst plate)/(Asecond plate of basal−Afirst plate of basal)×100%
where Asecond plate is the absorbance of the solution in the second plate; Afirst plate is the absorbance of the solution in the first plate; Asecond plate of basal is the absorbance of the solution in the second plate of the basal; and Afirst plate of basal is the absorbance of the solution in the first plate of the basal.

[2] = system: VEGF-induced tube formation of HUVECs; assay: Inhibition of VEGF-induced tube formation of HUVECs on Matrigel; type: cell-based, Human; settings: 10 TM compound, VEGF 10 ng/mL, Matrigel 10 mg/mL
Method: as §1

[3] = system: VEGF-induced cell proliferation of HUVECs; assay: Inhibition of VEGF-induced DNA synthesis ([3H]thymidine incorporation) in HUVECs; type: cell-based; settings: Homo sapiens, HUVEC
Method: (§2) Human umbilical vein endothelial cells (HUVECs) were incubated in the absence of Compound 1 (basal and control) or presence of Compound 1 (with a concentration of […], 0.03 TM, 0.1 TM, 0.3 TM, or 1 TM). Vascular endothelial growth factor (VEGF) or basic fibroblast growth factor (bFGF) was added (except for basal) to induce DNA synthesis, which was detected based on [^3H]thymidine incorporation.

A549 lung tumor cells = assay: Anti-tumor activity, survival of nude mice with A549 lung tumor cells in the pleural space; type: in vivo; settings: oral 10 mg/kg/day, 10^6 A549 cells in pleural space, FIG. 2
Method: 10^6 A549 lung tumor cells were introduced into the pleural space of nude mice. Compound 1 was administrated to the mice orally (10 mg/kg/day). The survival rates of Compound 1-treated mice and control mice were compared (FIG. 2). The life span (i.e., the medium survival time) of Compound 1-treated mice was about 1.8 times that of control mice, as analyzed by a % T/C value [(median survival time of treatment/median survival time of control)×100].

[4] = system: bFGF-induced angiogenic effect; assay: Matrigel plug angiogenesis in nude mice, bFGF; type: in vivo
Method: (§3) Nude mice were subcutaneously injected with a Matrigel plug containing 150 ng/mL VEGF or bFGF. Vehicle or Compound 1 was administrated to the mice orally (1 mg/kg/day, 3 mg/kg/day, 10 mg/kg/day, 30 mg/kg/day, or 100 mg/kg/day) for seven days. The angiogenic response was monitored visually through the transparent skin. […] The plugs were removed, fixed in 4% formaldehyde, embedded in paraffin, sectioned at 5-Tm thick for histological analysis, and blood vessel growth quantified by hematoxylin-eosin staining. All photos were taken at 40× magnification.
(§4) In a quantitative analysis of angiogenic effect, nude mice were treated as described above, and the plugs were removed and dissolved. Hemoglobin concentrations were measured using a hemoglobin detection kit (Sigma Chem. Co.) as indices of angiogenesis. Means±S.E. (n=3) were presented (see FIG. 1). Symbol “***” represents P<0.001 that are compared with the control.

[5] = system: bFGF-induced cell proliferation of HUVECs; assay: Inhibition of bFGF-induced DNA synthesis ([3H]thymidine incorporation) in HUVECs; type: cell-based; settings: Homo sapiens, HUVEC
Method: as §2

[6] = system: VEGF-induced angiogenic effect; assay: Matrigel plug angiogenesis in nude mice, VEGF; type: in vivo
Method: as §3, §4

[7] = read-out: HUVEC growth, % of Basal
[8] = read-out: HUVEC growth, % of Control

**Q.** Which results are given for `OCc1ccc(-c2nn(Cc3ccccc3)c3ccccc23)o1` [Compound 1, 1-benzyl-3-(5′-hydroxymethyl-2′-furyl)indazole]?
**A.** Inhibition of bFGF-induced formation of networks of elongated endothelial cells [1]: inhibited; activity at 30 µM (HUVECs; [7]): 92.2 ± 1.8%; activity at 30 µM (HUVECs; [8]): 40.6 ± 0.8%; inhibition at 30 µM (HUVECs): 60 to 76%; Inhibition of VEGF-induced formation of networks of elongated endothelial cells [2]: inhibited; IC50 [3]: 90 nM; Life span (medium survival time) relative to control mice (A549 lung tumor cells): about 1.8 times that of control mice; bFGF-induced angiogenic effect, blood vessel growth in Matrigel plug (histology) ([4]; oral 1-100 mg/kg/day for seven days, plug with 150 ng/mL bFGF): effectively inhibited; bFGF-induced angiogenic effect, hemoglobin concentration of plug ([4]; oral, seven days, n=3, FIG. 1): effectively inhibited; IC50 [5]: 140 nM; VEGF-induced angiogenic effect, blood vessel growth in Matrigel plug (histology) ([6]; oral 1-100 mg/kg/day for seven days, plug with 150 ng/mL VEGF): effectively inhibited; VEGF-induced angiogenic effect, hemoglobin concentration of plug ([6]; oral, seven days, n=3, FIG. 1): effectively inhibited

**Q.** Which results are given for `COC(=O)c1ccc(-c2n[nH]c3ccccc23)o1` [Compound 2]?
**A.** activity at 30 µM (HUVECs; [7]): 193 ± 11.1%; activity at 30 µM (HUVECs; [8]): 85 ± 4.9%; inhibition at 30 µM (HUVECs): 15%

**Q.** Which results are given for `OCc1ccc(-c2n[nH]c3ccccc23)o1` [Compound 3]?
**A.** activity at 30 µM (HUVECs; [7]): 178 ± 14.7%; activity at 30 µM (HUVECs; [8]): 78.4 ± 6.5%; inhibition at 30 µM (HUVECs): 22 to 40%

**Q.** With `COC(=O)c1ccc(-c2nn(Cc3ccccc3)c3cc(F)ccc23)o1` [Compound 4] as the compound, how does the activity at 30 µM (HUVECs; [7]) read?
**A.** The activity at 30 µM was 195 ± 6.5%.

**Q.** And the activity at 30 µM (HUVECs; [8])?
**A.** The activity at 30 µM was 85.9 ± 2.8%.

**Q.** What about the inhibition at 30 µM (HUVECs) of the same compound?
**A.** Its inhibition at 30 µM is 15%.

**Q.** `OCc1ccc(-c2nn(Cc3ccccc3)c3cc(F)ccc23)o1` [Compound 6] was tested. Which activity at 30 µM (HUVECs; [7]) did it give?
**A.** The activity at 30 µM was 83.9 ± 4%.

**Q.** What about the activity at 30 µM (HUVECs; [8]) of the same compound?
**A.** The activity at 30 µM was 37 ± 1.8%.

**Q.** And the inhibition at 30 µM (HUVECs)?
**A.** Its inhibition at 30 µM is 60 to 76%.

**Q.** With `Cc1ccc2c(-c3ccc(CO)o3)nn(Cc3ccccc3)c2c1` [Compound 7] as the compound, how does the activity at 30 µM (HUVECs; [7]) read?
**A.** The activity at 30 µM was 53.9 ± 7.5%.

**Q.** And the activity at 30 µM (HUVECs; [8])?
**A.** The activity at 30 µM was 23.7 ± 3.3%.

**Q.** What about the inhibition at 30 µM (HUVECs) of the same compound?
**A.** Its inhibition at 30 µM is 60 to 76%.

**Q.** With `Cc1ccc2c(-c3ccc(C(=O)O)o3)nn(Cc3ccccc3)c2c1` [Compound 8] as the compound, how does the activity at 30 µM (HUVECs; [7]) read?
**A.** Its activity at 30 µM is 163 ± 22.1%.

**Q.** And the activity at 30 µM (HUVECs; [8])?
**A.** The activity at 30 µM was 71.4 ± 9.7%.

**Q.** What about the inhibition at 30 µM (HUVECs) of the same compound?
**A.** Its inhibition at 30 µM is 22 to 40%.

**Q.** What does the source list for `O=C(O)c1cccc(-c2nn(Cc3ccccc3)c3ccccc23)c1` [Compound 9]?
**A.** activity at 30 µM (HUVECs; [7]): 172 ± 14.4%; activity at 30 µM (HUVECs; [8]): 75.8 ± 6.3%; inhibition at 30 µM (HUVECs): 22 to 40%
